Drawing on ChEMBL document CHEMBL1800060, “Enhancement of transcriptional activity of mutant p53 tumor suppressor protein through stabilization of tetramer formation by calix[6]arene derivatives” (Bioorg Med Chem Lett, 2010), this text covers deltaT and Activity for three compounds.

Assay [1] relates to Cellular tumor antigen p53 (Homo sapiens), P04637 [R337H]. Description: Thermal stabilization of p53 tetramerization domain-Arg337His mutant peptide assessed as change in transition temperature at 10 uM by CD spectroscopy.
The test system is the same in assay [2]. Briefly: Thermal stabilization of p53 tetramerization domain-Arg337His mutant peptide assessed as change in transition temperature at 40 uM by CD spectroscopy.
For assay [3] the test system is unchanged. Briefly: Enhancement of transcriptional activity of EGFP tagged p53 tetramerization domain-Arg337His mutant peptide in NCI-H1299 cells transfected with p53RE-mCherry(NLS) reporter plasmid assessed as increase in fluorescence signal at 20 uM after 11 hrs by fluorescence assay. The class given is cell-based.
Assay [4] addresses Cellular tumor antigen p53 (Homo sapiens) (UniProt P04637). Description: Enhancement of transcriptional activity of wild type p53 in NCI-H1299 cells transfectedp53RE-mCherry(NLS) reporter plasmid assessed as increase in fluorescence signal at 20 uM after 11 hrs by fluorescence assay. The class given is cell-based.
Assay [5] deals with Cellular tumor antigen p53 (Homo sapiens), P04637 [R273H]. Briefly: Enhancement of transcriptional activity of p53 DNA binding domain Arg273His mutant in NCI-H1299 cells transfected p53RE-mCherry(NLS) reporter plasmid assessed as increase in fluorescence signal at 20 uM after 11 hrs by fluorescence assay. Format: cell-based.
Assay [6] deals with Cellular tumor antigen p53 (Homo sapiens), P04637 [R337H]. Description: Enhancement of transcriptional activity of EGFP tagged p53 tetramerization domain-Arg337His mutant peptide in NCI-H1299 cells transfected with p53RE-mCherry(NLS) reporter plasmid assessed as increase in fluorescence signal at 20 uM after 11 hrs by fluorescence assay relative to untreated control. The class given is cell-based.

Structures are written as SMILES. Active and inactive are the calls of the source. The rule behind the calls is not given here.

Consider `COc1c2cc(Cn3cccn3)cc1Cc1cc(Cn3cccn3)cc(c1OC)Cc1cc(Cn3cccn3)cc(c1OC)Cc1cc(Cn3cccn3)cc(c1OC)Cc1cc(Cn3cccn3)cc(c1OC)Cc1cc(Cn3cccn3)cc(c1OC)C2`, for which the deltaT in assay [1] stood at 0 °C.

With `N=C(N)NCc1cc2c3c(c1)Cc1cc(CNC(=N)N)cc4c1OCCOCCOc1c(cc(CNC(=N)N)cc1Cc1cc(CNC(=N)N)cc(c1OCCOCCO3)C2)C4`, the figures for the deltaT in assay [2] and in assay [1] were -0.3 °C and 0.3 °C, respectively. Moreover, the outcome in assay [3] was inactive.

Take `COc1c2cc(Cn3ccnc3)cc1Cc1cc(Cn3ccnc3)cc(c1OC)Cc1cc(Cn3ccnc3)cc(c1OC)Cc1cc(Cn3ccnc3)cc(c1OC)Cc1cc(Cn3ccnc3)cc(c1OC)Cc1cc(Cn3ccnc3)cc(c1OC)C2`: the deltaT in assay [2] worked out at 4.1 °C; in assay [1], 2.3 °C. Also, the result in assay [3] and in assay [4] was Active. In addition, the outcome in assay [5] was inactive. Besides, in assay [6], the Activity is 130%.
